In patent US20170052170A1, “NOVEL CELL LINES AND METHODS” (priority 2009, published 2017):

Biological target: T1, sweet taste receptor (T1R2, T1R3 endogenous) (Homo sapiens, UniProt Q7RTX0+Q8TE23)
T1 construct: endogenous in cells; host or cells: HuTu (ATCC HTB-40), H716 (ATCC CCL-251), HEK 293T (ATCC CRL-11268); some with prior UV treatment
T1 sequence (Q8TE23 20-839): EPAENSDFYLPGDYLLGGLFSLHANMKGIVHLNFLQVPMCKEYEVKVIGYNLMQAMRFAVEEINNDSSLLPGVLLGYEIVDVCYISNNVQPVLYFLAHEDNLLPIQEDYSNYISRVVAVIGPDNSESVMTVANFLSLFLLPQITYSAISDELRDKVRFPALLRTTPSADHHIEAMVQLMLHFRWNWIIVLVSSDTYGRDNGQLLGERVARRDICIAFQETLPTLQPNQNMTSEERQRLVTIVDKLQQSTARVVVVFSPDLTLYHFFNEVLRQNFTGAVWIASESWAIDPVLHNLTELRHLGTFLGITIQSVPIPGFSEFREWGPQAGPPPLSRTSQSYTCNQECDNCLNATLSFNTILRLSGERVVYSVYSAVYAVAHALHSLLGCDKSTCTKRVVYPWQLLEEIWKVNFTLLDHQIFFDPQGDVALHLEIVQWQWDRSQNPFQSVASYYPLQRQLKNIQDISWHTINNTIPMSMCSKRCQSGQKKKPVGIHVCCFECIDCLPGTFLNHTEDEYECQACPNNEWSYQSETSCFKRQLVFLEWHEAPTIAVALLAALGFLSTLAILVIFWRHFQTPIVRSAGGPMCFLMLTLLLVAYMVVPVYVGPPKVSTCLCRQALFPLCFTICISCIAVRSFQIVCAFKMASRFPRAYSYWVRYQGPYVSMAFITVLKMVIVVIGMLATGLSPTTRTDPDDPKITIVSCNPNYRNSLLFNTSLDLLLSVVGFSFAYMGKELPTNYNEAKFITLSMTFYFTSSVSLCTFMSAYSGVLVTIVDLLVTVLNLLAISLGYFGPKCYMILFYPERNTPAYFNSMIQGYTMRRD
T1 sequence (Q7RTX0 21-852): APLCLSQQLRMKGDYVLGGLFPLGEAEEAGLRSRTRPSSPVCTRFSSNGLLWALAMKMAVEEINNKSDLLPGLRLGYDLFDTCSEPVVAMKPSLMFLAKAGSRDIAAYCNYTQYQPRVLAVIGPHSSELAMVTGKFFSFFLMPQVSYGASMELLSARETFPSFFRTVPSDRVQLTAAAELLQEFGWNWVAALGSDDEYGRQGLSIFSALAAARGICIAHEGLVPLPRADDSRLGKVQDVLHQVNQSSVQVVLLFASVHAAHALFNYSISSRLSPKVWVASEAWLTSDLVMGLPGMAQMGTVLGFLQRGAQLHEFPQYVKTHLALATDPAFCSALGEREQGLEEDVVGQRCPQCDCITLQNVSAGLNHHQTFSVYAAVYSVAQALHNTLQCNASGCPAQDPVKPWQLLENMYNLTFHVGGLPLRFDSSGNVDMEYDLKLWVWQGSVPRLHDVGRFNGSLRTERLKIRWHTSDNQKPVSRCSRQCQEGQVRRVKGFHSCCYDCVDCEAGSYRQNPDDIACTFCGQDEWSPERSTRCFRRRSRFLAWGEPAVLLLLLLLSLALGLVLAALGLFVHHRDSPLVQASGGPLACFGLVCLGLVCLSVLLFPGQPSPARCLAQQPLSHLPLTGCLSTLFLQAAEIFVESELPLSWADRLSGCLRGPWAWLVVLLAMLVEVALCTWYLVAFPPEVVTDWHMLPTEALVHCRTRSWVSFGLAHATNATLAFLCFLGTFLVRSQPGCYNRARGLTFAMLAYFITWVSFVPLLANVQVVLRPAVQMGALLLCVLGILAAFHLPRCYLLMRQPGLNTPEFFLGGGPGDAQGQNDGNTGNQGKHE
Experiment: Calcium flux assay, cells endogenously expressing at least one sweet receptor subunit
Type: cell-based
Conditions: 15 mM fructose
Description: Populations of cells each resulting from the expansion of single isolated cells then were characterized for their ability to respond to a sweet ligand using functional cell-based assays. 15 mM fructose was used in these experiments. Depending on the cell type, different conditions were used as described below.
Forty-eight hours prior to assay, cells were seeded in growth media (L15 media (Sigma #L5520) supplemented with 10% serum (Sigma #SAC1203C), 4 mM L-Glutamine (Sigma G7513), 10 mM HEPES (Sigma H0887), and a […] of penicillin/streptomycin solution (final concentration 100 units penicillin/100 μG streptomycin per mL) (Sigma # P4458) at a high density, from 12 to 20 million cells, in 10 cm dishes. Cells were dissociated from the culture matrix and were seeded at 35,000 cells per well 24 hours prior to assay in 384 well plates. Media was removed after 18 to 24 hours. A calcium-sensitive fluorescent dye (Fluo-4, Invitrogen) diluted in sweet assay buffer (130 mM NaCl, 1.1mMKH2PO4, 1.3 mM CaCl, 20 mM HEPES and 3mMNaHPO4*7H20) was added then to each well. Cells were incubated in this media for 1 hour. Plates then were loaded on a high throughput plate reader (Hamamatsu FDSS). […] Calcium flux or assay response was detected prior to, during and following addition of sweet assay buffer containing fructose to each well for a final concentration of 15 mM fructose. […]
Alternatively, cells were dissociated from the culture matrix and were seeded at cell densities from 2,500 to 20,000 per well for 24 or 48 hours prior to assay in Eagle's Minimal Essential Media (Sigma #D5650) containing 10% FBS (Sigma #2442), 2 mM L-Glutamine (Sigma #G7513) and 1 mM Sodium Pyruvate (Sigma #S8636) or a mixture of equal parts of this media and L-15 media (Sigma, L5520) in a 384 well plate. […] Plates then were loaded on a high throughput plate reader (Hamamatsu FDSS). […] Calcium flux or assay response was detected prior to, during and following addition of sweet assay buffer containing fructose to each well for a final concentration of 15 mM fructose. […]

Measured: response in calcium flux reporter assay

O=C(CO)[C@@H](O)[C@H](O)[C@H](O)CO [fructose]
responding to fructose: 293T cells, FIG. 28C | H716 cells, FIG. 28B | HuTu cells, FIG. 28A
